Data from US10105384B2, “Nucleic acids targeting TCTP for use in the treatment of chemo- or hormone-resistant cancers” (INSTITUT NATIONAL DE LA SANTE ET DE LA RECHERCHE MEDICALE …, priority 2010, dated 2018).
d = 2'-deoxy (DNA); r = 2'-OH (RNA)

How the values were obtained:
Assay type in all cases: cell-based, human
PC-3 cells [1] = test: MTT cell growth assay, PC-3 cells; conditions: for enhancement of docetaxel sensitivity: PC-3 cells, 50 nM docetaxel 24 h, MTT
Description: In brief, cells were seeded in each well of 12-well microtiter plates (30 000 to 50 000 cells per well) and allowed to attach overnight. To study the effect of TCTP downregulation on apoptosis induced by docetaxel, PC-3 cells were transiently transfected the day after seeding with 5 nM of TCTP siRNA for 48 h or 100 nM of TCTP ASO for 72 h. Cells were then treated with 50 nM of docetaxel and MTT assays were performed after 24 h. To assess the effect of TCTP downregulation on Hsp27 cytoprotection, LNCaP-Mock and -Hsp27 cells were transiently transfected the day after seeding with 5 nM of TCTP siRNA for 48 h. The down- or upregulation of TCTP effect on LNCaP and C4-2 cell viability was realized after transient transfections with 100 nM of TCTP ASO or 0.02 μg/μl of pDEST-TCTP for 72 h and 48 h respectively. Cells were then treated with 1 nM of docetaxel in serum-free media (mimics androgen withdrawal in vitro) and crystal violet assays were performed the day after. Each assay was performed in triplicate.
To assess the effect of TCTP down-regulation on CR cell growth, PC-3 cells were treated for 1 day with 5 nM TCTP siRNA or for 2 days with 100 nM TCTP ASO. At the end of the treatment, PC-3 cells were incubated with 50 nM of docetaxel. Growth rates of PC-3 cells were examined using the 3-(4,5-dimethylthiazol-2-yl)-2,5-diphenyltetrazolium bromide assay. […] The effect of the inhibition of TCTP on cell survival was analyzed in PC-3 after combined ASO and docetaxel-chemotherapy treatment. After 24 h of treatment with 50 nM of docetaxel, cell viability was determined using a MTT assay. The experiment was repeated in triplicate. *** differs from PC-3 transfected with control-siRNA (P50.001) using Statview software. […] The same effect has been observed with TCTP siRNA (SEQ ID NO: 3) and 5′-[…]-3′ (SEQ ID NO: 14) and 5′-[…]-3′ (SEQ ID NO: 15) ASOs.
(§1) PC3 cells were transfected with a TCTP siRNA of SEQ ID NO: 3. Cell proliferation and apoptosis were studied using respectively MTT (3-(4,5-dimethylthiazol-2-yl)-2,5-diphenyl tetrazolium bromure) assay and flow cytometry.
(§2) PC3 cells were transfected with a TCTP ASO of SEQ ID NO: 2. Cell proliferation and apoptosis were studied using respectively MTT assay and flow cytometry.

PC-3 cells [2] = test: Viability assay by Invitrogen Countess (trypan blue), PC-3 cells
Description: PC-3 cells were treated with 70, 100 or 200 nM of TCTP ASO or control. 3 days after, the cells were harvested, combined with 10 μl of trypan blue and counted with Invitrogen Countess. Viability, cell concentration and size were recorded for each sample following the manufacturer's instructions.
(§3) Flow cytometry was used to quantify the percentage of cells in each cell cycle phase three days after the siRNA treatment. After the treatment of PC-3 cells with 5 nM TCTP siRNA for 1 day, the fraction of cells undergoing apoptosis (sub-G1/G0 fraction) was 25% higher after treatment with 5 nM TCTP siRNA compared with scrambled control siRNA (**, P≤0.01; FIG. 6, upper panel). Using TCTP ASO treatment alone, we found an increase of 75% in sub-G0G1 fraction (***, P≤0.001; FIG. 6, middle and bottom panel), enhanced by the 50 nM docetaxel treatment (90% in sub-G0-G1 fraction, ***, P≤0.001). […] The fraction of PC-3 in S phase was 20 to 40% lower after TCTP siRNA or ASO treatments respectively compared to the scrambled controls (FIG. 6). […] The rate of apoptotic PC-3 cells after TCTP silencing with different ASO concentrations was explored with the Invitrogen countess (FIG. 6 and FIG. 7A). PC-3 cells were treated with 70, 100 or 200 nM of TCTP ASO or control. Cells were harvested 3 days after treatment and […] of trypan blue was added before analysis with Invitrogen Countess. […] Moreover, TCTP has been reported to interact with caspase-3, thereby inhibiting caspase-3 activation (Gnanasekar et al., 2009, Int J Oncol. 34:1241-6). In order to investigate the effect of TCTP silencing on caspase-3 cleavage and activity, PC-3 cells were treated daily with 100 nM TCTP or scrambled ASO for 2 days. Cells were harvested 2 days after and proteins were extracted for western blotting with a caspase-3 antibody that recognizes both full-length and cleaved caspase-3.

caspase-3 = test: Caspase-3 cleavage by western blot in PC-3 cells; conditions: not in control treated cells
Description: Western Blot analysis was performed as described previously (Rocchi et al., 2004, Cancer Res. 64:6595-602) with 1:5000 rabbit anti-Hsp27 polyclonal antibody (Assay Designs, Villeurbanne, France), 1:2000 rabbit TCTP polyclonal antibody (Abcam Inc., Cambridge, UK), 1:250 rabbit anti-MSL1v1 polyclonal antibody (Abcam Inc.), 1:500 mouse anti-ubiquitin monoclonal antibody (Santa Cruz Biotechnology Inc., Heidelberg, Germany) or 1:1000 rabbit anti-caspase-3 polyclonal antibody (Cell Signalling Technology Inc., Danvers, USA). Loading levels were normalized using 1:5000 rabbit anti-glyceraldehyde-3-phosphate dehydrogenase polyclonal (Abcam Inc.) or 1:2500 mouse anti-vinculine monoclonal antibodies (Sigma Chemical Co., St Louis, Mo., USA).
Flow cytometry was used to quantify the percentage of cells in each cell cycle phase three days after the siRNA treatment. After the treatment of PC-3 cells with 5 nM TCTP siRNA for 1 day, the fraction of cells undergoing apoptosis (sub-G1/G0 fraction) was 25% higher after treatment with 5 nM TCTP siRNA compared with scrambled control siRNA (**, P≤0.01; FIG. 6, upper panel). Using TCTP ASO treatment alone, we found an increase of 75% in sub-G0G1 fraction (***, P≤0.001; FIG. 6, middle and bottom panel), enhanced by the 50 nM docetaxel treatment (90% in sub-G0-G1 fraction, ***, P≤0.001). […]

PC-3 cells [3] = test: Flow cytometry of propidium iodide-stained nuclei (apoptosis, cell cycle), PC-3 cells
Description: Flow cytometry of propidium iodide-stained nuclei was performed as described previously (Rocchi et al., 2004, Cancer Res. 64:6595-602). In brief, PC-3 cells were plated at the density of 10^6 cells into 10 cm dishes in DMEM supplemented with 10% FCS. To assess the effect of TCTP inhibition on apoptosis and cell cycle, cells were treated the day after seeding with 5 nM of siRNA TCTP or control and 100 nM of ASO TCTP or scrambled control for 48 h. Cells were then treated with 50 nM of docetaxel. After 24 h, the cells were analyzed for relative DNA content on a dual laser flow cytometer (FACSCalibur, Becton Dickinson Biosciences, Le Pont de Claix, France). Each assay was performed in triplicate.
as §3, §1, §2

Row | Substance | reduction in PC-3 cell growth (PC-3 cells [1]; 5 nM siRNA alone, 4 days after treatment, compared to scrambled control) [%] | enhancement of docetaxel sensitivity (PC-3 cells [1]) | decrease of proliferation of PC3 cells (PC-3 cells [1]; TCTP siRNA, MTT assay (summary, FIG. 12)) [%] | rate of apoptotic cells (PC-3 cells [2]; PC-3, TCTP siRNA) | active cleaved caspase-3 fragments (17-20 kDa) (caspase-3) | fraction of cells undergoing apoptosis (sub-G1/G0 fraction) higher than scrambled control siRNA (PC-3 cells [3]; PC-3, 5 nM siRNA for 1 day) [%] | increase of the percentage of apoptotic cells (PC-3 cells [3]; TCTP siRNA, PC3, flow cytometry (summary, FIG. 12)) [%] | fraction of PC-3 in S phase lower than scrambled control (PC-3 cells [3]; siRNA treatment) [%] | decrease of proliferation of PC3 cells (PC-3 cells [1]; TCTP ASO, MTT assay (summary, FIG. 13)) [%] | rate of apoptotic cells (PC-3 cells [2]; PC-3, 70 nM ASO, three days after transfection) [%] | rate of apoptotic cells (PC-3 cells [2]; PC-3, 100 nM ASO, three days after transfection) [%] | rate of apoptotic cells (PC-3 cells [2]; PC-3, 200 nM ASO, three days after transfection) [%] | fraction of PC-3 in S phase lower than scrambled control (PC-3 cells [3]; ASO treatment) [%] | increase in sub-G0-G1 fraction (PC-3 cells [3]; PC-3, TCTP ASO plus 50 nM docetaxel) [%] | increase in sub-G0G1 fraction (PC-3 cells [3]; PC-3, TCTP ASO treatment alone) [%] | increase of the percentage of apoptotic cells (PC-3 cells [3]; TCTP ASO, PC3, flow cytometry (summary, FIG. 13)) [%]
1 | 5′-AACCCGUCCGCGAUCUCCCdGdG-3′ (AACCCGUCCGCGAUCUCCCGG; siRNA; sugars from the 5' end r19 d2, backbone not given here) [TCTP siRNA, from Qiagen] | 55 | same effect | 48.1 | Same effects | presence of active cleaved caspase-3 fragments | 25 | 25.8 | 20 | – | – | – | – | – | – | – | –
2 | 5′-ACCAATGAGCGAGTCATCAA-3′ (phosphorothioate backbone, further chemistry not given here) [ASO10] | – | up to 25% | – | – | presence of active cleaved caspase-3 fragments | – | – | – | 58 | 100 | 200 | 300 | 40 | 90 | 75 | 70
